Holding throughout (assay type): cell-based, human
One data set relates to A2780 cells. Description: MTT cytotoxicity analysis, ovarian cancer cells A2780. Particulars: for inhibition of growth and proliferation (cell viability vs control and RNAiMAX group): ovarian cancer cells A2780, 6.25-200 nM, 48 hours, FIG. 6-8. Here is the method:
(§1) A2780 and HCT-8 cell lines were cultured in RPMI 1640 medium containing 10% FBS and 1% penicillin/streptomycin. HepG2 cell lines were cultured in MEM medium containing 10% FBS and 1% penicillin/streptomycin. All the above cell lines were cultured at 37° C. in a humidified atmosphere containing 5% CO2.
(§2) In the cytotoxicity analysis, exponentially growing cells of each cancer cell line were inoculated at a density of 5000 cells per well in a 100 μL medium in a 96-well microplate and allowed to adhere for 24 hours prior to treatment. Then obtained RNA molecules at successive concentrations with a nucleic acid transfer vector, namely, Lipofectamine™ RNAiMAX transfection reagent (Thermo Fisher Scientific, United States), were added to the cells. After 48 hours of treatment, MTT solution (50 μL per well, 1 mg/mL solution) was added to each well and incubated at 37° C. for 4 hours. Then 200 μL of dimethyl sulfoxide (DMSO) was added, and an optical density of the resulting solution was measured via calorimetry by using SpectraMax 190 microplate reader (Molecular Devices, United States) at 570 nm. Dose-response curves were obtained and IC50 values were calculated via GraphPad Prism 5 (GraphPad, United States). Each experiment was performed three times.
(§3) Before addition of the MTT solution, the inventor determined the cytotoxic effects and IC 50 of the GL1, GL2, GL4, and GL6 mimics at different concentrations of 6.25 nM, 12.5 nM, 25 nM, 50 nM, 100 nM, and 200 nM on A2780, HCT-8 and HepG2 cells. After 48 hours of the treatment of the double-stranded RNA molecules, the cell viability of these cells was compared with that of the control group and the RNAiMAX group. Paclitaxel was used in a comparative example. […] The results were compared with those of the control group and the RNAiMAX group using the transfection agent. For IC50, refer to Table 4. Paclitaxel was used in a comparative example.
(§4) Then the inventor specifically determined the cytotoxic effects and IC50 of the RNA molecules GL2 mimic and different chemically modified GL10, GL11 and GL12 mimics at different concentrations of 6.25 nM, 12.5 nM, 25 nM, 50 nM, 100 nM, and 200 nM on A2780, HCT-8 and HepG2 cells. […] For IC50, refer to Table 5. Paclitaxel was used in a comparative example.

The next data set relates to HCT-8 cells. Description: MTT cytotoxicity analysis, colorectal cancer cells HCT-8. Particulars: for inhibition of growth and proliferation (cell viability vs control and RNAiMAX group): colon cancer cells HCT-8, 6.25-200 nM, 48 hours, FIG. 6-8; for IC50: HCT-8 colorectal cancer cells, 48 hours of treatment, Lipofectamine RNAiMAX transfection reagent, MTT, read-out: Median inhibitory concentration IC50. Here is the method: as §1, §2, §3, §4

The next data set has as its system HepG2 cells. The experiment in a line: MTT cytotoxicity analysis, liver cancer cells HepG2. Conditions: for inhibition of growth and proliferation (cell viability vs control and RNAiMAX group): liver cancer cells HepG2, 6.25-200 nM, 48 hours, FIG. 6-8; for IC50: HepG2 liver cancer cells, 48 hours of treatment, Lipofectamine RNAiMAX transfection reagent, MTT, read-out: Median inhibitory concentration IC50. Here is the method: as §1, §2, §3, §4

Like-named read-outs stand apart in the source and are kept apart here.

In the case of “GL7: double-stranded RNA from Ganoderma lucidum tRNA-Ile(GAU); antisense SEQ ID NO: 8, sense SEQ ID NO: 17, length 19 (antisense AUUCUUCUUGGGCUUACCA; sense UGGUAAGCCCAAGAAGAAU; RNA, backbone not given here)”, the “inhibition of growth and proliferation (cell viability vs control and RNAiMAX group)” value in the data set on A2780 cells was “have the effect of inhibiting the growth and proliferation of cancer cells”; in the data set on HCT-8 cells, “have the effect of inhibiting the growth and proliferation of cancer cells”; with HepG2 cells, “have the effect of inhibiting the growth and proliferation of cancer cells”.
Regarding “GL4 mimic: double-stranded RNA from Ganoderma lucidum tRNA-Ile(GAU); antisense SEQ ID NO: 5, sense SEQ ID NO: 14, length 22 (antisense AAGCCUAUAAUUUAAAGGUAGA; sense UCUACCUUUAAAUUAUAGGCUU; RNA, backbone not given here)”, the “inhibition of growth and proliferation (cell viability vs control and RNAiMAX group)” value is “effective in inhibiting growth and proliferation” in the data set on A2780 cells; “effective in inhibiting growth and proliferation” in the data set on HCT-8 cells; “effective in inhibiting growth and proliferation” in the data set with HepG2 cells. Besides, the IC50 worked out at 950 nM in the data set with HCT-8 cells and 350 nM in the data set on HepG2 cells.
As to “GL5: double-stranded RNA from Ganoderma lucidum tRNA-Ile(GAU); antisense SEQ ID NO: 6, sense SEQ ID NO: 15, length 19 (antisense AAGCCUAUAAUUUAAAGGU; sense ACCUUUAAAUUAUAGGCUU; RNA, backbone not given here)”, the “inhibition of growth and proliferation (cell viability vs control and RNAiMAX group)” value in the data set with A2780 cells is “have the effect of inhibiting the growth and proliferation of cancer cells”; with HCT-8 cells, “have the effect of inhibiting the growth and proliferation of cancer cells”; in the data set on HepG2 cells, “have the effect of inhibiting the growth and proliferation of cancer cells”.
As to “GL8: double-stranded RNA from Ganoderma lucidum tRNA-Ile(GAU); antisense SEQ ID NO: 9, sense SEQ ID NO: 18, length 22 (antisense AGUUCGAUUCUUCUUGGGCUUA; sense UAAGCCCAAGAAGAAUCGAACU; RNA, backbone not given here)”, the “inhibition of growth and proliferation (cell viability vs control and RNAiMAX group)” value with A2780 cells is “have the effect of inhibiting the growth and proliferation of cancer cells”; in the data set on HCT-8 cells, “have the effect of inhibiting the growth and proliferation of cancer cells”; with HepG2 cells, “have the effect of inhibiting the growth and proliferation of cancer cells”.
Turning to `CC(=O)O[C@H]1C(=O)[C@@]2(C)[C@H]([C@H](OC(=O)c3ccccc3)[C@]3(O)C[C@H](OC(=O)[C@H](O)[C@@H](NC(=O)c4ccccc4)c4ccccc4)C(C)=C1C3(C)C)[C@]1(OC(C)=O)CO[C@@H]1C[C@@H]2O` [Taxol, Paclitaxel, reference compound], the IC50 in the data set with A2780 cells (Homo sapiens, A2780 ovarian cancer cells, 48 hours of treatment, Lipofectamine RNAiMAX transfection reagent, MTT, read-out: Median inhibitory concentration IC50) was 73.2 nM; in the data set with HCT-8 cells (Homo sapiens), 621 nM; with HepG2 cells (Homo sapiens), 678 nM.
Take “GL9: double-stranded RNA from Ganoderma lucidum tRNA-Ile(GAU); antisense SEQ ID NO: 10, sense SEQ ID NO: 19, length 19 (antisense UCGAUUCUUCUUGGGCUUA; sense UAAGCCCAAGAAGAAUCGA; RNA, backbone not given here)”: the “inhibition of growth and proliferation (cell viability vs control and RNAiMAX group)” value is “have the effect of inhibiting the growth and proliferation of cancer cells” in the data set with A2780 cells; “have the effect of inhibiting the growth and proliferation of cancer cells” in the data set on HCT-8 cells; “have the effect of inhibiting the growth and proliferation of cancer cells” in the data set with HepG2 cells.

Source of the values: patent US20250304965A1, “DOUBLE-STRANDED RNA MOLECULE AND PHARMACEUTICAL USE THEREOF” (MACAU UNIVERSITY OF SCIENCE AND TECHNOLOGY, priority 2022, published 2025).
